Results published in ChEMBL document CHEMBL1201862, “PubChem BioAssay data set” (2004).
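Briefly, cells in 96-well plates were exposed to five compound concentrations for 48 h, and endpoints were estimated by linear interpolation. GI50 = concentration required for 50% inhibition of growth.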 The source made the active and inactive calls. No stated cut-off is given here; in the data, active = GI50 up to about 1.1 µM and inactive = higher.

What was measured:
Test in all cases: NCI tumour cell line growth inhibition, 48 h
Malme-3M = test system: Malme-3M
DMS-273 = test system: DMS-273
HT-29 = test system: HT-29
786-0 = test system: 786-0
DMS-114 = test system: DMS-114
HCC 2998 = test system: HCC 2998
UACC-62 = test system: UACC-62
HOP-18 = test system: HOP-18
M19-MEL = test system: M19-MEL
SK-MEL-2 = test system: SK-MEL-2
SF-268 = test system: SF-268
RXF 631 = test system: RXF 631
KM12 = test system: KM12
COLO 205 = test system: COLO 205
K562 = test system: K562
HCT-15 = test system: HCT-15
RXF 393 = test system: RXF 393
SK-MEL-5 = test system: SK-MEL-5
HOP-62 = test system: HOP-62
HCT-116 = test system: HCT-116
OVCAR-8 = test system: OVCAR-8
TK-10 = test system: TK-10
IGROV-1 = test system: IGROV-1
ACHN = test system: ACHN
SR = test system: SR
SF-539 = test system: SF-539
LOX IMVI = test system: LOX IMVI
HL-60 = test system: HL-60
EKVX = test system: EKVX
UACC-257 = test system: UACC-257
MOLT-4 = test system: MOLT-4
SF-295 = test system: SF-295
KM-20L2 = test system: KM-20L2
SNB-75 = test system: SNB-75
A498 = test system: A498
CCRF-CEM = test system: CCRF-CEM
RPMI-8226 = test system: RPMI-8226
M14 = test system: M14
DLD-1 = test system: DLD-1
NCI-H522 = test system: NCI-H522
NCI-H460 = test system: NCI-H460
A549 = test system: A549
SNB-78 = test system: SNB-78
LXFL 529 = test system: LXFL 529
UO-31 = test system: UO-31
OVCAR-3 = test system: OVCAR-3
SK-OV-3 = test system: SK-OV-3
SNB-19 = test system: SNB-19
OVCAR-4 = test system: OVCAR-4
SN12C = test system: SN12C
U-251 = test system: U-251
SW-620 = test system: SW-620
NCI-H226 = test system: NCI-H226
CAKI-1 = test system: CAKI-1
SK-MEL-28 = test system: SK-MEL-28
OVCAR-5 = test system: OVCAR-5
XF498 = test system: XF498
NCI-H23 = test system: NCI-H23
HOP-92 = test system: HOP-92

In the case of `C/C(=N\NC(N)=O)C(CN1CCCCC1)C(c1ccccc1)c1c(O)c2ccccc2oc1=O` (centres undefined), the GI50 (Malme-3M) is reported as > 100 µM (inactive), the GI50 (DMS-273) is reported as > 100 µM (inactive) and the GI50 (HT-29) is reported as > 100 µM (inactive). The GI50 (786-0) was 0.6 µM (active), the GI50 (DMS-114) was > 100 µM (inactive) and the GI50 (HCC 2998) was > 100 µM (inactive). The GI50 (UACC-62) was > 100 µM (inactive), the GI50 (HOP-18) was > 100 µM (inactive) and the GI50 (M19-MEL) was > 100 µM (inactive). The GI50 (SK-MEL-2) was > 100 µM (inactive), the GI50 (SF-268) was > 100 µM (inactive) and the GI50 (RXF 631) was > 100 µM (inactive). For the same compound, the GI50 (KM12) was > 100 µM (inactive), the GI50 (COLO 205) was > 100 µM (inactive) and the GI50 (K562) was > 100 µM (inactive). For the same compound, the GI50 (HCT-15) was greater than 100 µM, the GI50 (RXF 393) was > 100 µM (inactive) and the GI50 (SK-MEL-5) was > 100 µM (inactive). For the same compound, the GI50 (HOP-62) was > 100 µM (inactive), the GI50 (HCT-116) was > 100 µM (inactive) and the GI50 (OVCAR-8) was > 100 µM (inactive). For the same compound, the GI50 (TK-10) was > 100 µM (inactive), the GI50 (IGROV-1) was > 100 µM (inactive) and the GI50 (ACHN) was > 100 µM (inactive). For the same compound, the GI50 (SR) was > 100 µM (inactive), the GI50 (SF-539) was > 100 µM (inactive) and the GI50 (LOX IMVI) was > 100 µM (inactive). For the same compound, the GI50 (HL-60) was > 100 µM (inactive), the GI50 (EKVX) was > 100 µM (inactive) and the GI50 (UACC-257) was > 100 µM (inactive). The GI50 (MOLT-4) was > 100 µM (inactive), the GI50 (SF-295) was > 100 µM (inactive) and the GI50 (KM-20L2) was > 100 µM (inactive). The GI50 (SNB-75) was > 100 µM (inactive), the GI50 (A498) was > 100 µM (inactive) and the GI50 (CCRF-CEM) was > 100 µM (inactive). The GI50 (RPMI-8226) was > 100 µM (inactive), the GI50 (M14) was > 100 µM (inactive) and the GI50 (DLD-1) was > 100 µM (inactive). For the same compound, the GI50 (NCI-H522) was > 100 µM (inactive), the GI50 (NCI-H460) was > 100 µM (inactive) and the GI50 (A549) was > 100 µM (inactive). The GI50 (SNB-78) was > 100 µM (inactive), the GI50 (LXFL 529) was > 100 µM (inactive) and the GI50 (UO-31) was > 100 µM (inactive). The GI50 (OVCAR-3) was > 100 µM (inactive), the GI50 (SK-OV-3) was > 100 µM (inactive) and the GI50 (SNB-19) was > 100 µM (inactive). For the same compound, the GI50 (OVCAR-4) was > 100 µM (inactive), the GI50 (SN12C) was > 100 µM (inactive) and the GI50 (U-251) was > 100 µM (inactive). The GI50 (SW-620) was > 100 µM (inactive), the GI50 (NCI-H226) was > 100 µM (inactive) and the GI50 (CAKI-1) was > 100 µM (inactive). For the same compound, the GI50 (SK-MEL-28) was > 100 µM (inactive) and the GI50 (OVCAR-5) was > 100 µM (inactive).

`CC(C)C1CO[C@]2(C)CCC(=O)N12` (some centres undefined) was tested, and the GI50 (Malme-3M) was > 100 µM (inactive), the GI50 (HT-29) was > 100 µM (inactive) and the GI50 (786-0) was > 100 µM (inactive). The GI50 (DMS-114) was > 100 µM (inactive), the GI50 (UACC-62) was > 100 µM (inactive) and the GI50 (HOP-18) was > 100 µM (inactive). The GI50 (M19-MEL) was > 100 µM (inactive), the GI50 (SK-MEL-2) was > 100 µM (inactive) and the GI50 (SF-268) was > 100 µM (inactive). For the same compound, the GI50 (RXF 631) was > 100 µM (inactive), the GI50 (XF498) was > 100 µM (inactive) and the GI50 (KM12) was > 100 µM (inactive). The GI50 (COLO 205) was > 100 µM (inactive), the GI50 (K562) was > 100 µM (inactive) and the GI50 (HCT-15) was greater than 100 µM. For the same compound, the GI50 (RXF 393) was > 100 µM (inactive), the GI50 (SK-MEL-5) was > 100 µM (inactive) and the GI50 (HOP-62) was > 100 µM (inactive). The GI50 (HCT-116) was > 100 µM (inactive), the GI50 (OVCAR-8) was > 100 µM (inactive) and the GI50 (TK-10) was > 100 µM (inactive). For the same compound, the GI50 (IGROV-1) was > 100 µM (inactive), the GI50 (ACHN) was > 100 µM (inactive) and the GI50 (SR) was > 100 µM (inactive). The GI50 (SF-539) was > 100 µM (inactive), the GI50 (NCI-H23) was > 100 µM (inactive) and the GI50 (HL-60) was > 100 µM (inactive). For the same compound, the GI50 (EKVX) was > 100 µM (inactive), the GI50 (UACC-257) was > 100 µM (inactive) and the GI50 (MOLT-4) was > 100 µM (inactive). For the same compound, the GI50 (SF-295) was > 100 µM (inactive), the GI50 (KM-20L2) was > 100 µM (inactive) and the GI50 (SNB-75) was > 100 µM (inactive). For the same compound, the GI50 (CCRF-CEM) was > 100 µM (inactive), the GI50 (HOP-92) was > 100 µM (inactive) and the GI50 (RPMI-8226) was > 100 µM (inactive). The GI50 (M14) was > 100 µM (inactive), the GI50 (DLD-1) was > 100 µM (inactive) and the GI50 (NCI-H522) was > 100 µM (inactive). The GI50 (NCI-H460) was > 100 µM (inactive), the GI50 (A549) was > 100 µM (inactive) and the GI50 (LXFL 529) was > 100 µM (inactive). The GI50 (UO-31) was > 100 µM (inactive), the GI50 (OVCAR-3) was > 100 µM (inactive) and the GI50 (SK-OV-3) was > 100 µM (inactive). The GI50 (SNB-19) was > 100 µM (inactive), the GI50 (OVCAR-4) was > 100 µM (inactive) and the GI50 (SN12C) was > 100 µM (inactive). The GI50 (U-251) was > 100 µM (inactive), the GI50 (SW-620) was > 100 µM (inactive) and the GI50 (NCI-H226) was > 100 µM (inactive). The GI50 (CAKI-1) was > 100 µM (inactive) and the GI50 (SK-MEL-28) was > 100 µM (inactive).
